# Measurements taken from paper PMC4467128 (Oncotarget, 2014).
# How the values were obtained:
# HDAC1, 2, 6, and 8 = conditions: range over the four isoforms; cited from earlier work
# HDAC4 = conditions: cited from earlier work
# HUVEC cells = assay: MTT cell viability assay, normal HUVEC cells; assay type: cell-based; conditions: Homo sapiens, 24 h, read-out: IC50 (cell viability, toxicity)
# Experimental: (§1) Two fast-growing malignant B cell lymphoma (Burkitt lymphoma) cell lines and human umbilical vein endothelial cells (HUVEC) were used. Ramos and HUVEC cells were purchased from American Type Culture Collection (Manassas, VA, USA) and BJAB cells were a kind gift from Professor Ping-Ning Hsu (National Taiwan University Hospital and National Taiwan University, College of Medicine, Taipei, Taiwan). […] All cells were maintained in humidified air containing 5% CO2 at 37°C. Cell density was maintained between 1×10^5 and 1×10^6 cell/ml and passaged every 2 to 3 days.
# (§2) Cell viability was assessed by MTT assay. […] After the treatment, 100 μl of 0.5 mg/ml 3-(4,5-Dimethylthiazol-2-yl)-2,5-diphenyl-tetrazolium bromide (MTT) were added to each well and incubated at 37°C to stained cells forming an insoluble blue formazan product. After 1 h incubation, 100 μl of extraction reagent (0.1M sodium acetate buffer or DMSO) were added to each well and mix thoroughly to lyse cells. The plates were then measured at 550 nm using an enzyme-linked immunosorbent assay (ELISA) reader (Packard, Meriden, CT, USA).
# Ramos cells [1] = assay: MTT cell viability assay, Ramos B-cell lymphoma cells; assay type: cell-based; conditions: Homo sapiens, 24 h, mean ± SEM, read-out: IC50 (growth inhibition)
# Experimental: as §1, §2
# BJAB tumors = assay: BJAB xenograft tumor growth model in nude mice; assay type: in vivo; conditions: po, qd, 31 days
# Experimental: (§3) The mice were carefully maintained and all animal procedures were in accordance with the Institutional Animal Care and Use Committee procedures and guidelines. All animal experiments followed ethical standards, and protocols has been reviewed and approved by Animal Use and Management Committee of National Taiwan University (IACUC Approval No: 20100225).
# In BJAB xenograft model, the male nude mice were injected subcutaneously with the same volume of BD Matrigel Matrix HC (BD bioscience, catalog 354248) and BJAB cells (2×10^7 cell/mouse) into the flank of each animal. […] Tumor size was measured twice weekly and calculated from V = 0.5 lw^2, where w = width (w) and l = length (l). At the end of study, tumors were carefully removed and frozen in liquid nitrogen for subsequent western analysis.
# [2] = system: p-Akt (S473) in BJAB cells; assay: Cell-based ELISA for p-Akt (S473), BJAB; conditions: Homo sapiens, 24 h, mean ± SEM, read-out: IC50 (Akt dephosphorylation, p-Akt S473)
# Experimental: After the treatment, cells were lysed with ice-cold lysis buffer mentioned above and equivalent aliquots of protein were subjected to a PathScan phospho-Akt1 (Ser473) sandwich ELISA kit (Cell Signaling Technology) following manufacture's instruction. In briefly, whole cell lysate was first half-diluted with sample diluent and added 100 μl into the well incubating overnight at 4°C. After the reaction, wells were washed 4 times with 200 μl wash buffer and then added 100 μl of Akt1 mouse detection antibody incubating 1 h at 37°C. Washed 4 times again and then added 100 μl of anti-mouse IgG HRP-linked antibody incubating 30 min at 37°C. After incubation, washed the well once again and then added 100 μl TMB substrate for color production and finally added 100 μl STOP solution. The results were measured by spectrophotometer at wavelength 450 nm.
# [3] = system: HDAC enzyme activity in Ramos cells; assay: Cell-based HDAC fluorescence activity assay, Ramos; conditions: Homo sapiens, 24 h, read-out: IC50 (HDAC enzyme activity)
# Experimental: (§4) After the incubation, the lysine developer in this kit was added and the mixture was incubated for another 30 min at 37°C.
# [4] = system: HDAC enzyme activity in BJAB cells; assay: Cell-based HDAC fluorescence activity assay, BJAB; conditions: Homo sapiens, 24 h, read-out: IC50 (HDAC enzyme activity)
# Experimental: as §4
# BJAB cells = assay: MTT cell viability assay, BJAB B-cell lymphoma cells; assay type: cell-based; conditions: Homo sapiens, 24 h, mean ± SEM, read-out: IC50 (growth inhibition)
# Experimental: as §1, §2
# Akt = Akt (Homo sapiens, UniProt P31749); assay: Enzyme-based Akt kinase activity assay (Kinome Diversity Screen, ELISA quantitation); assay type: biochemical; conditions: crosstide substrate
# Experimental: In briefly, Akt activity was assayed using human recombinant insect Sf21 cells for Akt kinase source and crosstide peptide ([…], 15 μg/mL) as a substrate. Cell lysate was incubated with kinase assay buffer (50 mM HEPES pH 7.4, 10 mM MgCl2, 0.2 mM Na3VO4, and 1 mM DTT) for 60 min at 25°C, and analyzed by ELISA quantitation of Crosstide-P.
# [5] = Body weight of BJAB tumor bearing mice; assay type: in vivo; conditions: nude mice, 50-200 mg/kg, po, qd, 31 days
# Experimental: The mice were carefully maintained and all animal procedures were in accordance with the Institutional Animal Care and Use Committee procedures and guidelines. […] Tumor size was measured twice weekly and calculated from V = 0.5 lw^2, where w = width (w) and l = length (l). At the end of study, tumors were carefully removed and frozen in liquid nitrogen for subsequent western analysis.
# Ramos cells [6] = assay: Ramos engraftment survival model in NOD/SCID mice; assay type: in vivo; conditions: daily oral gavage, MPT0E028 100 mg/kg, SAHA 200 mg/kg
# From the text: as §3
# In Ramos engrafment model, human B-cell lymphoma Ramos cells were resuspended at 10^7 cells/ml in culture medium at room temperature, and 2×10^6 cells were inoculated into male NOD/SCID mice via tail vein. Treatment began 1 week after engrafment. […] Survival rate was used as end point for this study.
# Chain of Akt (P31749 whole entry): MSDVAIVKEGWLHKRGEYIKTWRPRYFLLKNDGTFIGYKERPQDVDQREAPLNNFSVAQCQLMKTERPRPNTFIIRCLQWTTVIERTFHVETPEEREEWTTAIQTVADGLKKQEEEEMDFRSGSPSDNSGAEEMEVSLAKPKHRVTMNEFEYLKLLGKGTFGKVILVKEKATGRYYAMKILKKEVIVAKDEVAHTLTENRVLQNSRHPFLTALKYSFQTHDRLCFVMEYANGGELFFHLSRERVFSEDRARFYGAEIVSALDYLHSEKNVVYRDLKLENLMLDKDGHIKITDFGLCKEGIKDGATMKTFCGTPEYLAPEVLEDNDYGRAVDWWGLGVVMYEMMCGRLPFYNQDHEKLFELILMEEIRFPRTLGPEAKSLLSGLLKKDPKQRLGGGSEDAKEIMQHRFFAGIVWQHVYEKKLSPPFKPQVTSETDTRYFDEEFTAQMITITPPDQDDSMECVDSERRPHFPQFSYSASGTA
Compound,"IC50 (HDAC1, 2, 6, and 8)",effect upon HDAC4 (HDAC4),IC50 (HUVEC cells),IC50 (Ramos cells [1]),TGI (BJAB tumors; 100 mg/kg),TGI (BJAB tumors; 200 mg/kg),IC50 [2],IC50 [3],IC50 [4],IC50 (BJAB cells),IC50 (Akt),Body weight difference between groups [5],Survival rate compared with control group (Ramos cells [6])
"O=C(C=Cc1ccc2c(c1)CCN2S(=O)(=O)c1ccccc1)NO [MPT0E028, 3-(1-Benzenesulfonyl-2,3-dihydro-1H-indol-5-yl)-N-hydroxy-acrylamide]",0.0295 to 2.53 µM,no effect,> 30 µM,0.65 ± 0.1 µM,20.8%,40.4%,5.9 ± 1.6 µM,2.88 ± 1.9 µM,4.54 ± 1.2 µM,1.45 ± 0.5 µM,5.78 µM,no significant difference in body weight,significantly prolonged
"O=C(CCCCCCC(=O)Nc1ccccc1)NO [SAHA, reference compound]",,,,,,17.9%,32.9 ± 11.3 µM,,,,,,no significant efficacy
